Here are results for eight compounds from PMC4684281, “Antitumor Effects and Mechanism of Novel Emodin Rhamnoside Derivatives against Human Cancer Cells In Vitro” (PLoS ONE, 2015).

In data set [1] the test system is A549 cells. The data set is described as follows: MTT cell viability assay, A549. The format is cell-based, Human. To be noted: Homo sapiens, A549; MTT, 72 hours; read-out: IC50 values, A549. Here is the method:
(§1) The viability of cancer cells was evaluated by MTT assay. Briefly, cells were inoculated in 96-well culture plates at the density of 1×10^4/well with complete medium containing 10% fetal calf serum in a final volume of 0.2 mL. Cells were incubated at 37°C for at least 24 hours to allow optimal attachment. When the cells reached 60% confluence, they were treated with Cisplatin, HCPT and emodin rhamnopyranosides derivatives in various concentrations, and incubated in a humidity-controlled 5%CO2 incubator at 37°C for 72 hours. Medium were exchanged once every 24 hours. Cell control group and blank group were set up in the same manner, with each group having six parallel wells. Cell survival was assessed by directly adding 22 μL of 5mg/mL MTT to 0.2 mL medium. After three hours, the formazan precipitate was dissolved in 200μL isopropanol per well, and completely mixed under room temperature. Afterwards, the optical density of each well was detected at 570 nm wavelength by iMark microplate reader (Bio-rad,USA). This experiment was repeated at least three times.

The test system of data set [2] is HepG2 cells. The data set is described as follows: MTT cell viability assay, HepG2. Type of data set: cell-based, Human. To be noted: Homo sapiens, HepG2; MTT, 72 hours; read-out: IC50 values, HepG2. The protocol: as §1
For orientation: Tetrazolium assays rely on reduction of a dye to a coloured formazan, in cell work by metabolically active cells.

Data set [3] concerns OVCAR-3 cells. The data set is described as follows: MTT cell viability assay, OVCAR-3. Type of data set: cell-based, Human. To be noted: Homo sapiens, OVCAR-3; MTT, 72 hours; read-out: IC50 values, OVCAR-3. Here is the method: as §1
Data set [4] concerns HeLa cells. The data set is described as follows: MTT cell viability assay, HeLa. The format is cell-based, Human. The note with it: Homo sapiens, HeLa; MTT, 72 hours; read-out: IC50 values, HeLa. Here is the method: as §1
Data set [5] concerns MDCK cells. The data set is described as follows: MTT cell viability assay, MDCK. Type of data set: cell-based, Canine. The note with it: Canis lupus familiaris, 72 hours. Here is the method: as §1
Data set [6] relates to HepG2 cells. The data set is described as follows: Fluorescence microscopy assay (Hoechst 33342). Type of data set: cell-based, Human. The protocol: HepG2 cells were inoculated in duplicate at 3×10^5/well density in 6-well plate, and allowed to attach at 37°C for 24 hours. Afterwards, cells were treated with 10 μM HCPT, 25 μM emodin and specific concentration EM-d-Rha (0.1μM, 0.5μM, 2.5μM), respectively. Cell control group was set in the same way. […] Medium were exchanged as described previously. In the end, all medium were discarded and cells were digested with 2mL 0.25% Trypsin-EDTA solution at 37°C for 5 min. After cells were harvested, cells were washed with PBS twice followed by centrifuging at 300×g for 5 minutes. Finally, cells were re-suspended in 100μL cold PBS after the supernatant was discarded. Cells were cultured in the dark for 10 minutes at room temperature after adding 100μL 1mg/mL Hoechst 33342 staining solution. Cells were harvested again as described previously to discard the staining solution. Wash the harvested cells twice with PBS before applying to the clean glass slides. The morphological changes of cells nuclei were observed and photographed under the fluorescence microscope (Olympus, Japan) at 350 nm excitation wavelength. The experiment was repeated three times.

The nature of data set [7]: Solubility (structure-activity remark). To be noted: one rhamnose introduced into emodin. The format is physicochemical.

≈ marks a conversion by molar mass, not a printed value.

With `CC(=O)O[C@@H]1[C@@H](O)[C@@H](O)[C@H](Oc2cc(O)c3c(c2)C(=O)c2cc(C)cc(O)c2C3=O)O[C@H]1C` [S-6], the concentration for half-maximal inhibition (IC50) (as a rule, the point on the concentration scale where inhibition reaches its midpoint) in data set [1] is 2.25 µg/mL (≈ 4.91 µM); in data set [2] it was greater than 20 µg/mL; in data set [3], greater than 20 µg/mL; in data set [4] it was greater than 20 µg/mL; in data set [5], 21.1 µg/mL (≈ 46 µM).
For `Cc1cc(O)c2c(c1)C(=O)c1cc(O[C@@H]3O[C@@H](C)[C@H](O)[C@@H](O)[C@H]3O)cc(O)c1C2=O` [S-2], the half-inhibitory concentration (IC50) in data set [1], in data set [2], in data set [3], in data set [4] and in data set [5] was greater than 20 µg/mL throughout.
`CC[C@@]1(O)C(=O)OCc2c1cc1n(c2=O)Cc2cc3cc(O)ccc3nc2-1` [HCPT]: the “Nuclear morphology, Hoechst 33342” value in data set [6] (HepG2, 2.5μM, 48h) is listed as “typical apoptotic nuclear morphology”.
As to `COc1cc(C)cc2c1C(=O)c1c(OC)cc(O[C@@H]3O[C@@H](C)[C@H](O)[C@@H](OC(C)=O)[C@H]3OC(C)=O)cc1C2=O` [S-9], the IC50 in data set [1] turned out to be 3.63 µg/mL (≈ 6.87 µM); in data set [2], 4.43 µg/mL (≈ 8.38 µM); in data set [3] it was 9.72 µg/mL (≈ 18.4 µM); in data set [4], 4.93 µg/mL (≈ 9.33 µM); in data set [5], 1.39 µg/mL (≈ 2.63 µM).
Turning to `CC(=O)O[C@@H]1[C@@H](O)[C@H](C)O[C@@H](Oc2cc(O)c3c(c2)C(=O)c2cc(C)cc(O)c2C3=O)[C@@H]1OC(C)=O` [S-3], the IC50 in data set [1], in data set [2], in data set [3], in data set [4] and in data set [5] was greater than 20 µg/mL throughout. Further, in data set [7], the “Solubility of derivative relative to emodin” value was “improved”.
With `Cc1cc(O)c2c(c1)C(=O)c1cc(O)cc(O)c1C2=O` [S-1, 3-methyl-1,6,8-trihydroxyanthraquinone, reference compound], the IC50 in data set [1] came to 19.5 µg/mL (≈ 72.3 µM); in data set [2], 12.8 µg/mL (≈ 47.3 µM); in data set [3], 25.8 µg/mL (≈ 95.5 µM); in data set [4], 12.1 µg/mL (≈ 44.9 µM); in data set [5] it was 5.81 µg/mL (≈ 21.5 µM). Also, the “Nuclear morphology, Hoechst 33342” value in data set [6] (HepG2, 25μM) is given as “displayed apoptotic morphological changes”.
In the case of `CC(=O)O[C@@H]1[C@@H](OC(C)=O)[C@@H](O)[C@H](Oc2cc(O)c3c(c2)C(=O)c2cc(C)cc(O)c2C3=O)O[C@H]1C` [S-5], the concentration for half-maximal inhibition (IC50) in data set [1] was 3.16 µg/mL (≈ 6.31 µM); in data set [2], 1.32 µg/mL (≈ 2.64 µM); in data set [3], greater than 20 µg/mL; in data set [4], 5.34 µg/mL (≈ 10.7 µM); in data set [5], 14.8 µg/mL (≈ 29.6 µM).
Consider `CC(=O)O[C@@H]1[C@@H](O)[C@@H](OC(C)=O)[C@H](Oc2cc(O)c3c(c2)C(=O)c2cc(C)cc(O)c2C3=O)O[C@H]1C` [S-4], for which the IC50 in data set [1] is 9.27 µg/mL (≈ 18.5 µM); in data set [2], greater than 20 µg/mL; in data set [3], greater than 20 µg/mL; in data set [4], greater than 20 µg/mL; in data set [5] it was greater than 20 µg/mL.
